According to patent publication EP4582087A1, “PHARMACEUTICAL COMPOSITION FOR TREATING LYMPHOMA” (SymBio Pharmaceuticals Limited, priority 2022, dated 2024):

How the values were obtained:
[1] = tested on: NK/T lymphoma cells (KAI-3, NK-S1, KHYG-1); test: Cell viability (CellTiter-Glo 2.0), NK/T lymphoma cell proliferation; assay type: cell-based; settings: Fig. 1
Experimental: (§1) Cell viability was determined using Promega CellTiter-Glo (registered trademark) 2.0 Cell Viability Assay (Promega Corporation, Madison, Wisconsin, USA) according to the manufacturer's protocol. Specifically, lymphoma cells were plated in a 96-well plate at a concentration of 2 × 10^3 cells per 100 µL of culture medium, and a drug (BCV) was added to each well at each concentration. At each time point, Promega CellTiter-Glo (registered trademark) 2.0 Cell Viability Assay reagent was added to the wells and incubated at room temperature for 10 minutes. Subsequently, […] was measured using a Tecan M200 Infinite 96-well plate reader and IControl software 1.6 (Tecan, Männedorf, Switzerland). Cell viability was evaluated as a percentage of a control absorbance. A dose-response curve was generated by plotting the percentage of viable cells against the drug concentration to analyze the growth-inhibitory effect. The IC50 values were estimated using GraphPad Prism version 8.0.2 (GraphPad Software). All reactions were performed in triplicate (n = 3). Furthermore, EBV positivity or EBV negativity of the cells was detected based on the presence or absence of an EBV-derived transcript (e.g., EBER, EBNA1, and the like).

[2] = tested on: EBV-positive NK/T lymphoma cells (NK-S1); test: Cell viability (CellTiter-Glo 2.0), comparison with antiviral agents; assay type: cell-based; settings: compared to acyclovir, ganciclovir, adefovir, foscarnet, and penciclovir, Fig. 2
Experimental: as §1
The experimental procedure was the same as in Example 1, except that BCV, acyclovir, ganciclovir, adefovir, foscarnet, and penciclovir were used as the drugs.

[3] = tested on: EBV-positive NK/T lymphoma; test: In vivo drug treatment of mice inoculated with NK-S1 cells; parameters: species or system NSG mice; settings: 40 mg/kg intraperitoneally twice weekly
Experimental: In in vivo drug treatment with BCV, 6-week-old female NSG mice were inoculated with 0.5 × 10^6 cells (NK-S1), and BCV or a control solvent was administered intraperitoneally at a dosage of 40 mg/kg twice weekly. Tumor measurements were recorded twice weekly until the tumor size in the control group reached approximately 2000 mm^3. Mice were euthanized according to the IACUC guideline. The tumor sizes of the experimental group and the control group (n = 8 per group) were averaged at each time point (Days 1, 5, 8, 12, and 15) and compared statistically. Throughout the experiment, signs of toxicity including diarrhea and weight loss were monitored.

[4] = tested on: EBNA1; test: Western blot of EBNA1 expression in lymphoma cells; assay type: cell-based; settings: NK-S1 and KAI-3; 0.1 and 1 µg/mL BCV for 72 hours; Fig. 4
Experimental: (§2) NK-S1 and KAI-3 cell lines were treated with 0.1 and 1 µg/mL BCV for 72 hours. Subsequently, whole-cell lysates were separated by SDS-PAGE using 4 to 15% Mini-PROTEAN™ TGX Stain-Free™ Protein Gel (Bio-Rad Laboratories, Inc., Hercules, CA, USA) and then transferred to a 0.2 µm PVDF membrane (Bio-Rad Laboratories, Inc., Hercules, California, USA). The membrane was blocked and then gently shaken overnight at 4°C in a solution containing 5% skimmed milk powder (Bio-Rad Laboratories, Inc., Hercules, CA, USA) or 5% bovine serum albumin (Sigma-Aldrich, Darmstadt, Germany), TBST solution (50 mM Tris/HCl, pH 7.4, 150 mM NaCl, 0.1% Tween-20), and primary antibodies (anti-EBNA1 antibody (Santa Cruz Biotechnology, Inc.) and anti-LMP1 antibody (Dako)). Exposure to an appropriate HRP-conjugated anti-mouse antibody (Cytiva, Washington D.C., USA) was performed for 1 hour. Finally, chemiluminescent detection was performed using SuperSignal Substrate Western Blotting Kit (Thermo Fisher Scientific Inc., Massachusetts, USA). Imaging was performed using ChemiDoc™ XRS+ (a system with Image Lab™ software, Bio-Rad Laboratories, Inc., Hercules, California, USA).

[5] = tested on: LMP1; test: Western blot of LMP1 expression in lymphoma cells; assay type: cell-based; settings: NK-S1 and KAI-3; 0.1 and 1 µg/mL BCV for 72 hours; Fig. 4
Experimental: as §2

[6] = tested on: Myc; test: Whole transcriptome sequencing / GSEA / quantitative PCR, Myc expression; assay type: cell-based; settings: NK-S1 and KAI-3
Experimental: (§3) BCV-treated NK-S1 and KAI-3 cell lines were subjected to sequencing of the entire transcription product. Gene set enrichment analysis (GSEA) was performed using the Molecular Signatures Database (MSigDB) Hallmark gene set. […] Quantitative PCR was performed using Maxima SYBR Green/ROX qPCR Master Mix (Thermo Scientific, USA). The ΔCt value of a gene's mRNA expression was calculated as the difference between the Ct value of the gene and that of an internal control, GAPDH. The ΔΔCt was calculated by subtracting the ΔCt value of the treatment group from the ΔCt value of an untreated control group. The fold change in expression was calculated using the formula 2^ΔΔCt.

[7] = tested on: STING pathway; test: Whole transcriptome sequencing / GSEA / quantitative PCR, STING pathway genes; assay type: cell-based; settings: NK-S1 and KAI-3; BCV 0.1 µg/mL and 1 µg/mL; Figs. 5B and 5C
Experimental: as §3

[8] = tested on: calreticulin; test: Immunogenic cell death: calreticulin staining by flow cytometry; assay type: cell-based; settings: NK-S1 and KAI-3; BCV 0.1 ug/mL or 1 ug/mL for 72 hours; Fig. 6
Experimental: (§4) NK-S1 and KAI-3 cell lines were treated with BCV (0.1 ug/mL or 1 ug/mL) or DMSO alone for 72 hours. For calreticulin staining, cells were incubated with a calreticulin antibody (1:100, room temperature, 30 minutes) (#ab92516, Abcam Limited.) and washed prior to analysis. Then, the cells were resuspended in PBS and analyzed using a cell analyzer (BD LSR Fortessa, BD Biosciences, San Jose, CA, USA). Data were analyzed using FlowJo version 10.8.0 (BD Biosciences, San Jose, California). The extracellular level of HMGB1 in the case of BCV treatment was measured using Lumit HMGB1 immunoassay (Promega Corporation, Madison, Wisconsin, USA).

[9] = tested on: HMGB1; test: Immunogenic cell death: extracellular HMGB1 (Lumit HMGB1 immunoassay); assay type: cell-based; settings: NK-S1 and KAI-3; BCV treatment; Fig. 6
Experimental: as §4

[10] = tested on: NK-S1 cell line; test: Combined treatment cell viability (CellTiter-Glo 2.0), Chou-Talalay combination index; assay type: cell-based; settings: for type of combined effect based on the combination index value: CI less than 1 indicates synergism; for effect of combined treatment compared to each drug alone: Fig. 7
Experimental: NK-S1 cell line was treated with a selected dose of etoposide, gemcitabine, or gamma irradiation, with or without BCV (0.1 µg/mL). Cell viability was quantified using Promega CellTiter-Glo (registered trademark) 2.0 Cell Viability Assay (Promega Corporation, Madison, Wisconsin, USA) according to the manufacturer's protocol. A combination index (CI) was calculated using Chou-Talalay median-effect analysis to determine if the effect was synergism, an additive effect, or antagonism. Specifically, a CI value less than 1 indicates synergism, and a CI value more than 1 indicates antagonism. A CI value close to 1 (i.e., between 0.9 and 1.1) was considered indicative of an additive effect.

[11] = tested on: MYC-positive lymphoma cells (Raji, Daudi, VAL, BJAB, DB); test: Cell viability (CellTiter-Glo 2.0), MYC-positive B-cell lymphoma cell lines; assay type: cell-based; settings: 96 hours, Fig. 8
Experimental: Different B-cell lymphoma cell lines were individually treated with each concentration of BCV for 96 hours. Cell viability was quantified using Promega CellTiter-Glo (registered trademark) 2.0 Cell Viability Assay (Promega Corporation, Madison, Wisconsin, USA) according to the manufacturer's protocol. Information on the presence or absence of EBV and the molecular information were obtained by referring to a public database. The cell lines shown in Fig. 8 have been reported to be classified into groups as follows: Raji and Daudi as Burkitt's lymphoma (BL) cell lines; VAL and DB as diffuse large B-cell lymphoma (DLBCL) cell lines; and BJAB as a BL cell line or a DLBCL cell line. All of these are B lymphomas in which MYC is either translocated or amplified. Raji, Daudi, and VAL are EBV-positive cell lines, while BJAB and DB are EBV-negative cell lines. VAL is triple-hit lymphoma and DB is double-hit lymphoma.

[12] = tested on: eleven NK/T lymphoma cell lines (KAI-3, NK-S1, NK-92, KHYG-1, NK-YS, MEC-04, SNK-1, SNK-6, YT, HANK-1, or SNT-8); test: Cell viability (CellTiter-Glo 2.0), eleven NK/T lymphoma cell lines; assay type: cell-based; settings: Fig. 9
Experimental: The effect of BCV on cell viability was examined in eleven NK/T lymphoma cell lines (KAI-3, NK-S1, NK-92, KHYG-1, NK-YS, MEC-04, SNK-1, SNK-6, YT, HANK-1, or SNT-8). Cell viability was quantified using Promega CellTiter-Glo (registered trademark) 2.0 Cell Viability Assay (Promega Corporation, Madison, Wisconsin, USA) according to the manufacturer's protocol. In brief, cells were plated in a 96-well plate at a concentration of 2 × 10^3 cells per 100 µL of culture medium, and a drug was added at each concentration. After each time point, Promega CellTiter-Glo (registered trademark) 2.0 Cell Viability Assay reagent was added to the wells and incubated at room temperature for 10 minutes. Subsequently, […] was measured using a Tecan M200 Infinite 96-well plate reader and iControl software 1.6 (Tecan, Männedorf, Switzerland). Cell viability was calculated as a percentage of the control absorbance. A dose-response curve was generated by plotting the percentage of viable cells against the drug concentration to analyze the growth-inhibitory effect. The IC50 values were estimated using GraphPad Prism version 8.0.2 (GraphPad Software). All reactions were performed in triplicate (n = 3).

[13] = BCV 0.1 µg/mL combined with etoposide
[14] = BCV 0.1 µg/mL combined with gemcitabine

**Q.** How did the “IC50 value of cell growth-suppressive action” value ([1]; EBV-positive (KAI-3 and NK-S1) versus EBV-negative (KHYG-1) NK/T lymphoma cells) turn out when `CCCCCCCCCCCCCCCCOCCCOP(=O)(O)CO[C@H](CO)Cn1ccc(N)nc1=O` [BCV, [(2S)-1-(4-amino-2-oxopyrimidin-1-yl)-3-hydroxypropan-2-yl]oxymethyl-(3-hexadecoxypropoxy)phosphinic acid] was run?
**A.** significantly lower for EBV-positive NK/T lymphoma cells (KAI-3 and NK-S1) compared to EBV-negative NK/T lymphoma cells (KHYG-1)

**Q.** And the “proliferation of NK/T lymphoma cells” value ([1]; KAI-3, NK-S1, KHYG-1)?
**A.** suppressed the proliferation of NK/T lymphoma cells

**Q.** And the cell growth-suppressive effect [2]?
**A.** significantly better cell growth-suppressive effect

**Q.** What about the “enlargement of EBV-positive NK/T lymphoma (tumor size)” value ([3]; NK-S1 in NSG mice, Days 1-15, Figs. 3A to 3D) of the same compound?
**A.** significantly suppressed the enlargement of EBV-positive NK/T lymphoma

**Q.** And the “animal's health status” value ([3]; NSG mice)?
**A.** good

**Q.** And the “signs of toxicity: diarrhea” value ([3]; NSG mice)?
**A.** no diarrhea observed

**Q.** And the “expression level of EBNA1” value [4]?
**A.** reduced the expression level

**Q.** What about the “expression level of LMP1” value [5] of the same compound?
**A.** reduced the expression level

**Q.** And the Myc expression ([6]; BCV 0.1 µg/mL and 1 µg/mL, Fig. 5A)?
**A.** significantly reduced Myc expression

**Q.** And the “expression of a gene group controlled by MYC” value ([6]; BCV-treated, Fig. 5)?
**A.** significantly reduced the expression of a gene group controlled by MYC

**Q.** And the “expression of a gene group in the STING pathway” value [7]?
**A.** increased

**Q.** What about the “number of calreticulin-positive cells” value [8] of the same compound?
**A.** clearly increased

**Q.** And the “release of HMGB1” value [9]?
**A.** clearly increased

**Q.** What about the “type of combined effect based on the combination index value” [10, 13] of the same compound?
**A.** synergistic effect

**Q.** What about the “effect of combined treatment compared to each drug alone” value [10, 13] of the same compound?
**A.** significant enhancement of the effect

**Q.** What about the “type of combined effect based on the combination index value” [10, 14] of the same compound?
**A.** synergistic effect

**Q.** And the “effect of combined treatment compared to each drug alone” value [10, 14]?
**A.** significant enhancement of the effect

**Q.** What about the “growth-suppressive effect on EBV-positive cells and EBV-negative cells” value ([11]; EBV-positive Raji, EBV-negative BJAB) of the same compound?
**A.** strong growth-suppressive effect on both EBV-positive cells and EBV-negative cells

**Q.** And the “cell growth-suppressive action on MYC-positive lymphoma cells” value ([11]; Raji, BJAB)?
**A.** distinct cell growth-suppressive action

**Q.** What about the IC50 values ([12]; four cell lines (KAI-3, NK-S1, NK-92, KHYG-1) versus the other seven cell lines) of the same compound?
**A.** lower IC50 values compared to other cell lines

**Q.** What about the “sensitivity to BCV” value ([12]; four cell lines (KAI-3, NK-S1, NK-92, KHYG-1)) of the same compound?
**A.** high sensitivity to BCV
